# How the values were obtained:
# [1] = target: T1, Recombinant full-length human IDO1 (Homo sapiens, UniProt P14902); assay: IDO1 enzymatic assay (NFK quantified by LCMS); assay type: biochemical; details: 2 nM enzyme, 5 μM L-tryptophan, pH6.5, 30 minutes pre-incubation at RT; mean values when measured multiple times; read-out: hIDO activity (IC50 in nM)
# T1 construct: Recombinant full-length human IDO1 with a N-terminal hexahistidine tag; hexahistidine (His6) (N); made in house; host or cells: E. coli
# T1 sequence (P14902 whole entry): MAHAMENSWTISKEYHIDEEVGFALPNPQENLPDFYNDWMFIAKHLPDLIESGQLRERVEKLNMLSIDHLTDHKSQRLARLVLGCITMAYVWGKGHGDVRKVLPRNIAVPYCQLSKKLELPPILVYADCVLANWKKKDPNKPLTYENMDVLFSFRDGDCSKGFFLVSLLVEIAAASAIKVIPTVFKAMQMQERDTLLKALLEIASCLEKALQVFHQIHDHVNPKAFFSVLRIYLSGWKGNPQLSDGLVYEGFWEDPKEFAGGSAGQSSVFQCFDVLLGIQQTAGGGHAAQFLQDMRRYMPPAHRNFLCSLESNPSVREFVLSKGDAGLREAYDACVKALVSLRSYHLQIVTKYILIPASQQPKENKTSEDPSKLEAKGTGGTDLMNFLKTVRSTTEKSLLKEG
# Method: 1) Testing Compounds for IDO Inhibitory Activity in an IDO1 Enzymatic Assay:
# Recombinant full-length human IDO1 with a N-terminal hexahistidine tag expressed in E. coli and purified to homogeneity is incubated at a final concentration of 2 nM in assay buffer consisting of 37.5 mM phosphate buffer at pH6.5 supplemented with 10 mM ascorbic acid, 0.45 μM methylene blue, 50U/ml catalase, 0.01% BSA, and 0.01% Tween 20 (protocol modified from Seegers et al, JBS 2014). Example compounds are serially diluted in DMSO, further diluted in phosphate buffer, and added to the enzyme at final concentrations ranging from 10 μM to 0.5 nM. The final DMSO concentration is 0.6%. Following a pre-incubation of 30 minutes at RT, the reaction is started by the addition of L-tryptophan at a final concentration of 5 μM in assay buffer. After 30 minutes of incubation at RT, 3 μL of the 20 μl reaction mixture are transferred to a 384 deep well plate containing 25 μL of deionized water. 100 μl of 200 nM L-Tryptophan-(indole-d5) in cold 100% methanol are added followed by a 10 minutes centrifugation at 3220×g at 4° C. An additional 75 μL of deionized water are then added followed by a 10 minutes centrifugation at 3220×g at 4° C. The product of the reaction N′-Formylkynurenine (NFK) is quantified by LCMS and normalized to the L-Tryptophan-(indole-d5) signal. Samples with 0.6% DMSO (0% effect) and a TDO/IDO inhibitor (100% effect) are used as control samples to set the parameters for the non-linear regression necessary for the determination of the half-maximal inhibitory concentration (IC50) for each compound. For each compound concentration the percentage of activity compared to 0% and 100% effect is calculated as average±STDEV (each concentration measured in duplicate). IC50 values and curves are generated with XLfit software (IDBS) using Dose-Response One Site model 203 (four parameter logistic curve model). The calculated IC50 values may fluctuate depending on the daily assay performance. Fluctuations of this kind are known to those skilled in the art. When compounds are measured multiple times, mean values are given.
# [2] = target: T2, Recombinant human TDO comprising amino acids 19-407 (Homo sapiens, UniProt P48775); assay: TDO2 enzymatic assay (NFK quantified by LCMS); assay type: biochemical; details: 15 nM enzyme, 200 μM L-tryptophan, pH7, 30 minutes pre-incubation at RT; mean values when measured multiple times; read-out: hTDO activity (IC50 in nM)
# T2 construct: Recombinant human TDO comprising amino acids 19-407 with a N-terminal hexahistidine tag; hexahistidine (His6) (N); made in house; host or cells: E. coli
# T2 sequence (P48775 19-406 limits assumed): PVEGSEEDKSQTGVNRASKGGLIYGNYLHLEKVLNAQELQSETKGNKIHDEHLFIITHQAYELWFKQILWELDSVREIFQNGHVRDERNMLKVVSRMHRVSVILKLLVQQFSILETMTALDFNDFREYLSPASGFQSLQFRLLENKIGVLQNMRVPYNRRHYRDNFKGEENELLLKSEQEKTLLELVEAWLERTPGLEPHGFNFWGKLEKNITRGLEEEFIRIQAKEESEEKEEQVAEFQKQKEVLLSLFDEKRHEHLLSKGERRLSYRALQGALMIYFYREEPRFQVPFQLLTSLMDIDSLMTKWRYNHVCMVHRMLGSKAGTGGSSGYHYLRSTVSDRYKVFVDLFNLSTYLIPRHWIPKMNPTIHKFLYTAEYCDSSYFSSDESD
# Method: 2) Testing Compounds for TDO Inhibitory Activity in a TDO2 Enzymatic Assay:
# Recombinant human TDO comprising amino acids 19-407 with a N-terminal hexahistidine tag expressed in E. coli and purified to homogeneity is incubated at a final concentration of 15 nM in assay buffer consisting of 75 mM phosphate buffer at pH7 supplemented with 100 μM ascorbic acid, 50U/ml Catalase, 0.01% BSA, and 0.01% Tween 20 (protocol modified from Seegers et al, JBS 2014). Example compounds are serially diluted in DMSO, further diluted in phosphate buffer, and added to the reaction mixture at final concentrations ranging from 10 μM to 0.5 nM. The final DMSO concentration is 0.6%. Following a pre-incubation of 30 minutes at RT, the reaction is started by the addition of L-tryptophan at a final concentration of 200 μM in assay buffer. After 30 minutes of incubation at RT, 3 μL of the reaction mixture are transferred to a 384 deep well plate containing 25 μL of deionized water. 100 μl of 200 nM L-Tryptophan-(indole-d5) in cold 100% methanol are added followed by a 10 minutes centrifugation at 3220×g at 4° C. An additional 75 μL of deionized water are then added followed by a 10 minutes centrifugation at 3220×g at 4° C. The product of the reaction N′-Formylkynurenine (NFK) is quantified by LCMS and normalized to the L-Tryptophan-(indole-d5) signal. Samples with 0.6% DMSO (0% effect) and a TDO/IDO inhibitor (100% effect) are used as control samples to set the parameters for the non-linear regression necessary for the determination of the half-maximal inhibitory concentration (IC50) for each compound. For each compound concentration the percentage of activity compared to 0% and 100% effect is calculated as average±STDEV (each concentration measured in duplicate). IC50 values and curves are generated with XLfit software (IDBS) using Dose-Response One Site model 203 (four parameter logistic curve model). The calculated IC50 values may fluctuate depending on the daily assay performance. Fluctuations of this kind are known to those skilled in the art. When compounds are measured multiple times, mean values are given.
IC50 [1] [nM],IC50 [2] [nM],SMILES
90.3,> 10200,"OC(c1cn(Cc2ccccc2)nn1)c1c(C2CC2)sc2cncn12 (racemic) [Example 1, rac-(1-Benzyl-1H-[1,2,3]triazol-4-yl)-(2-cyclopropyl-imidazo[5,1-b]thiazol-3-yl)-methanol]"
35.5,> 10200,"COc1cccc(-n2cc(C(O)c3c(C4CC4)sc4cncn34)nn2)c1 (racemic) [Example 8, rac-(2-Cyclopropyl-imidazo[5,1-b]thiazol-3-yl)-[1-(3-methoxy-phenyl)-1H-[1,2,3]triazol-4-yl]-methanol]"
8.62,> 10200,"COc1ccc(-n2cc(C(O)c3c(C4CC4)sc4cncn34)nn2)cc1 (racemic) [Example 9, rac-(2-Cyclopropyl-imidazo[5,1-b]thiazol-3-yl)-[1-(4-methoxy-phenyl)-1H-[1,2,3]triazol-4-yl]-methanol]"
20.8,6740,"CCc1sc2cncn2c1C(O)c1cn(-c2ccccc2)nn1 (racemic) [Example 12, rac-(2-Ethyl-imidazo[5,1-b]thiazol-3-yl)-(1-phenyl-1H-[1,2,3]triazol-4-yl)-methanol]"
95.8,> 10200,"OC(c1cn(-c2cccnc2)nn1)c1c(C2CC2)sc2cncn12 (racemic) [Example 15, rac-(2-Cyclopropyl-imidazo[5,1-b]thiazol-3-yl)-(1-pyridin-3-yl-1H-[1,2,3]triazol-4-yl)-methanol]"
9.03,7880,"OC(c1cn(-c2ccc3[nH]ccc3c2)nn1)c1c(C2CC2)sc2cncn12 (racemic) [Example 16, rac-(2-Cyclopropyl-imidazo[5,1-b]thiazol-3-yl)-[1-(1H-indol-5-yl)-1H-[1,2,3]triazol-4-yl]-methanol]"
154,> 10200,"Cc1sc2cncn2c1C(O)c1cn(-c2ccccc2)nn1 (racemic) [Example 17, rac-(2-Methyl-imidazo[5,1-b]thiazol-3-yl)-(1-phenyl-1H-[1,2,3]triazol-4-yl)-methanol]"
182,> 10200,"OC(c1cn(-c2cncnc2)nn1)c1c(C2CC2)sc2cncn12 (racemic) [Example 19, rac-(2-Cyclopropyl-imidazo[5,1-b]thiazol-3-yl)-(1-pyrimidin-5-yl-1H-[1,2,3]triazol-4-yl)-methanol]"
18.1,> 10200,"OC(c1cn(-c2ccc3cc[nH]c3c2)nn1)c1c(C2CC2)sc2cncn12 (racemic) [Example 21, rac-(2-Cyclopropyl-imidazo[5,1-b]thiazol-3-yl)-[1-(1H-indol-6-yl)-1H-[1,2,3]triazol-4-yl]-methanol]"

# Second part, the compound before the results:
SMILES,IC50 [1] [nM],IC50 [2] [nM]
"OC[C@H](O)COc1ccc(-n2cc(C(O)c3c(C4CC4)sc4cncn34)nn2)cc1 (mixture of isomers) [Example 202, (S)-3-(4-{4-[(R)-(2-Cyclopropyl-imidazo[5,1-b]thiazol-3-yl)-hydroxy-methyl]-[1,2,3]triazol-1-yl}-phenoxy)-propane-1,2-diol and (S)-3-(4-{4-[(S)-(2-Cyclopropyl-imidazo[5,1-b]thiazol-3-yl)-hydroxy-methyl]-[1,2,3]triazol-1-yl}-phenoxy)-propane-1,2-diol]",15,> 10200
"OC(c1cn(-c2ccccc2)nn1)c1c(C2CC2)sc2cncn12 (racemic) [Example 2, rac-(2-Cyclopropyl-imidazo[5,1-b]thiazol-3-yl)-(1-phenyl-1H-[1,2,3]triazol-4-yl)-methanol]",28.1,> 10200
"Cc1ccccc1-n1cc(C(O)c2c(C3CC3)sc3cncn23)nn1 (racemic) [Example 3, rac-(2-Cyclopropyl-imidazo[5,1-b]thiazol-3-yl)-(1-o-tolyl-1H-[1,2,3]triazol-4-yl)-methanol]",49.2,> 10200
"Cc1ccc(-n2cc(C(O)c3c(C4CC4)sc4cncn34)nn2)cc1 (racemic) [Example 4, rac-(2-Cyclopropyl-imidazo[5,1-b]thiazol-3-yl)-(1-p-tolyl-1H-[1,2,3]triazol-4-yl)-methanol]",34.5,> 10200
"OC(c1cn(-c2cccc(C(F)(F)F)c2)nn1)c1c(C2CC2)sc2cncn12 (racemic) [Example 5, rac-(2-Cyclopropyl-imidazo[5,1-b]thiazol-3-yl)-[1-(3-trifluoromethyl-phenyl)-1H-[1,2,3]triazol-4-yl]-methanol]",74.2,> 10200
"OC(c1cn(-c2ccc(C(F)(F)F)cc2)nn1)c1c(C2CC2)sc2cncn12 (racemic) [Example 6, rac-(2-Cyclopropyl-imidazo[5,1-b]thiazol-3-yl)-[1-(4-trifluoromethyl-phenyl)-1H-[1,2,3]triazol-4-yl]-methanol]",119,> 10200
"COc1ccccc1-n1cc(C(O)c2c(C3CC3)sc3cncn23)nn1 (racemic) [Example 7, rac-(2-Cyclopropyl-imidazo[5,1-b]thiazol-3-yl)-[1-(2-methoxy-phenyl)-1H-[1,2,3]triazol-4-yl]-methanol]",50.9,> 10200
"CC(=O)c1ccc(-n2cc(C(O)c3c(C4CC4)sc4cncn34)nn2)cc1 (racemic) [Example 10, rac-1-(4-{4-[(2-Cyclopropyl-imidazo[5,1-b]thiazol-3-yl)-hydroxy-methyl]-[1,2,3]triazol-1-yl}-phenyl)-ethanone]",18.4,> 10200
"N#Cc1ccc(-n2cc(C(O)c3c(C4CC4)sc4cncn34)nn2)cc1 (racemic) [Example 11, rac-4-{4-[(2-Cyclopropyl-imidazo[5,1-b]thiazol-3-yl)-hydroxy-methyl]-[1,2,3]triazol-1-yl}-benzonitrile]",39.6,> 10200
"OC(c1cn(-c2ccccc2)nn1)c1c(C2CCCC2)sc2cncn12 (racemic) [Example 13, rac-(2-Cyclopentyl-imidazo[5,1-b]thiazol-3-yl)-(1-phenyl-1H-[1,2,3]triazol-4-yl)-methanol]",54.4,8410
"OC(c1cn(-c2ccccn2)nn1)c1c(C2CC2)sc2cncn12 (racemic) [Example 14, rac-(2-Cyclopropyl-imidazo[5,1-b]thiazol-3-yl)-(1-pyridin-2-yl-1H-[1,2,3]triazol-4-yl)-methanol]",79.6,> 10200
"N#Cc1cccc(-n2cc(C(O)c3c(C4CC4)sc4cncn34)nn2)c1 (racemic) [Example 18, rac-3-{4-[(2-Cyclopropyl-imidazo[5,1-b]thiazol-3-yl)-hydroxy-methyl]-[1,2,3]triazol-1-yl}-benzonitrile]",9.32,> 10200
"OC(c1cn(-c2cccc3[nH]ccc23)nn1)c1c(C2CC2)sc2cncn12 (racemic) [Example 20, rac-(2-Cyclopropyl-imidazo[5,1-b]thiazol-3-yl)-[1-(1H-indol-4-yl)-1H-[1,2,3]triazol-4-yl]-methanol]",21.3,> 10200
